Results taken from patent US10189803B2, “Synthesis of therapeutic and diagnostic drugs centered on regioselective and stereoselective ring opening of aziridinium ions” (ILLINOIS INSTITUTE OF TECHNOLOGY, priority 2008, dated 2019).

Tests used:
[1] = Complexation kinetics with Bi(III), Arsenazo III (AAIII) spectroscopic competing reaction; assay type: physicochemical; details: pH 4.0 (0.15M NH4OAc), 25° C., 1 hour
Description: The novel ligand DEPA was further evaluated for the complexation kinetics with other metals. The complexation kinetics of the ligand DEPA with Bi(III) was determined using a well-known spectroscopic competing reaction with AAIII according to a modification of the reported procedure (Kodama, M.; Koike, T.; Mahatma, A. B.; Kimura, E. Inorg. Chem. 1991, 30, 1270). AAIII is known to form a weak complex with many different metals, which produce a UV absorbance maximum between ˜652 nm. However, uncomplexed AAIII absorb little at this wavelength. When introduced to a solution containing the AAIII-metal complex, a chelate can compete with AAIII for the metal. The idea is that if the chelate is more capable of binding the metal than AAIII, the metal will dissociate from the AAIII complex and form a complex with the chelate leading to the decrease in the absorbance at the wavelength. The absorbance (A652) for AAIII-Bi(III) complex was measured in the absence and in the presence of the ligands over 1 hour at rt. The complexation kinetics of Bi(III) was determined at pH 4.0 as hydrolysis occurs at a higher pH. The complexation result of the new ligands studied herein was compared to that of DOTA.
General procedure for complexation kinetics using AAIII. The kinetics experiments were performed as previously described. […]

[2] = Complexation kinetics with Lu(III), AAIII assay; assay type: physicochemical
Description: In summary, the novel decadentate ligand DEPA having both macrocyclic and acyclic metal binding moieties was efficiently prepared.
General procedure for complexation kinetics using AAIII. The kinetics experiments were performed as previously described. Ultrapure ammonium acetate (Aldrich, #431311) and hydrochloric acid solution (J. T. Baker, #JT6900-5) were purchased and used as received. All buffer solutions were prepared using deionized water (Milli-Q®, 18 MΩ). Metal-free stock solutions of all NH4OAc buffers (0.15 M, pH 4 or pH 4.5) were prepared using Chelex-100 resin (100-200 mesh, Bio-Rad Lab, Hercules, Calif.). Chelex resin (5 g) was added into the butter solution (100 mL) and the mixture was shaken for 1 h in a shaker (Eberbach), stored in the refrigerator overnight, and filtered through a Corning filter system (430513, pore size […]). A 15 μM AAIII solution in 0.15 M NH4OAc (pH 4 or pH 4.5) were prepared by adding AAIII (5.82 mg) to the NH4OAc buffer (500 mL). A solution of Bi(III)-AAIII (7.5 μM) was freshly prepared by mixing AAIII solution (15 μM, 50 mL) in 0.15 M NH4OAc (pH 4) with Bi(III) atomic absorption standard solution (79 μL, 995 μg/mL). A solution of Lu(III)-AAIII (1.8 μM) was freshly prepared by mixing AAIII solution ([…], 50 mL) in 0.15 M NH4OAc buffer (pH 4.5) with Lu(III) atomic absorption standard solution (15.4 μL, 1014 μg/ml). […]

Hela cells [3] = experiment: Antiproliferative activity, MTS assay, HeLa cells; assay type: cell-based, Human; details: for IC50: 72 h incubation, MTS; for cytotoxicity in HeLa cells over a series of concentrations (in words): FIG. 18
Description: Cell culture Human cervix HeLa cell line was obtained from ATCC (Rockville, Md.) and cultured in minimum essential medium (MEM) with L-glutamine (2 mM), Earle's BSS and sodium bicarbonate (1.5 g/L), supplemented with 10% fetal bovine serum (FBS), non-essential amino acids (0.1 mM), sodium pyruvate (1 mM) and antibiotic/antimycotic solution in a humidified atmosphere with 5% CO2 at 37° C. […] Lung fibroblast MRC-5 cell line was obtained from ATCC (Rockville, Md.) and cultured in ATCC formulated EMEM, supplemented with 10% fetal bovine serum (FBS) in a humidified atmosphere with 5% CO2 at 37° C.
(§1) Antiproliferative Activity. Cells were seeded onto 96-well plate at density of 2,000 cells for Hela cells or 5,000 cells for HT29 cells or 5,000 cells for MRC-5 per well in 0.1 mL complete medium and allowed to attach for 24 h. Varying concentrations of the test compounds in the final volume of 0.1 mL complete medium were then added in at least five series dilutions and incubated for 72 h. To measure cell proliferation, the Cell Titer 96 aqueous nonreactive cell proliferation assay (Promega Life Sciences, Madison, Wis.) was used according to the manufacturer's instructions. Briefly, MTS (2 mg/mL) and PMS (0.92 mg/ml) were mixed in a ratio of 20:1. An aliquot (20 μL) of the MTS/PMS mixture was added into each well, and the plate was incubated for 3 h at 37° C. Optical absorbance at 490 nm was then recorded with an enzyme-linked immunosorbent assay (ELISA) microtiter plate reader (Biotek). Each experiment was done at least in triplicate. Antiproliferative activity of the test compounds was expressed as the fraction of optical densities of treated the cells relative to the untreated solvent controls.^31 The data were plotted in GraphPad Prizm 3.0. Nonlinear regression analysis was used to determine IC50 values.
Cell culture. Human cervix HeLa cell line was obtained from ATCC (Rockville, Md.) and cultured in minimum essential medium (MEM) with L-glutamine (2 mM), Earle's BSS and sodium bicarbonate (1.5 g/L), supplemented with 10% fetal bovine serum (FBS), non-essential amino acids (0.1 mM), sodium pyruvate (1 mM) and antibiotic/antimycotic solution in a humidified atmosphere with 5% CO2 at 37° C.
as §1, with “activity.” for “Activity.”, “cells” for “cells or 5,000 cells for MRC-5”, “controls.” for “controls.^31”

HT29 cells = experiment: Antiproliferative activity, MTS assay, HT29 cells; assay type: cell-based, Human; details: 72 h incubation
In short: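 HeLa cells (2,000/well) and HT29 cells (5,000/well) were allowed to attach for 24 h, then exposed to at least five compound dilutions for 72 h. Viability was read by MTS/PMS reduction (3 h, 37° C, A490). IC50 was obtained by nonlinear regression of OD as a fraction of solvent control, at least in triplicate.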

MRC-5 cells = experiment: Antiproliferative activity in non-cancer lung fibroblast MRC-5 cells; assay type: cell-based, human; details: FIG. 20
Description: The cytotoxicity of the chelators in the cancer cells was compared to their cytotoxicities in non-cancer cells using human lung fibroblast cell (MRC-5).
Cell culture Human cervix HeLa cell line was obtained from ATCC (Rockville, Md.) and cultured in minimum essential medium (MEM) with L-glutamine (2 mM), Earle's BSS and sodium bicarbonate (1.5 g/L), supplemented with 10% fetal bovine serum (FBS), non-essential amino acids (0.1 mM), sodium pyruvate (1 mM) and antibiotic/antimycotic solution in a humidified atmosphere with 5% CO2 at 37° C. Human colon cancer cell line HT29 was maintained in a humidified atmosphere with 5% CO2 at 37° C. in RPMI-1640 medium, containing 10% FBS with L-glutamine and antibiotic/antimycotic. Lung fibroblast MRC-5 cell line was obtained from ATCC (Rockville, Md.) and cultured in ATCC formulated EMEM, supplemented with 10% fetal bovine serum (FBS) in a humidified atmosphere with 5% CO2 at 37° C.
Antiproliferative Activity. […] Optical absorbance at 490 nm was then recorded with an enzyme-linked immunosorbent assay (ELISA) microtiter plate reader (Biotek). […] Antiproliferative activity of the test compounds was expressed as the fraction of optical densities of treated the cells relative to the untreated solvent controls.^31 The data were plotted in GraphPad Prizm 3.0. […]

Hela cells [4] = experiment: Iron saturation experiment, Hela cell growth (MTS); assay type: cell-based, Human; details: for effect on Hela cells saturated with Fe(III)-citrate (in words): chelator 50 μM, Fe(III)-citrate 50 μM
Description: Cytotoxicity of the new chelators was measured in the HeLa and HT29 cancer cells and compared to that of the clinically used iron chelators DFO and DTPA. […] The preliminary cell culture experiments were performed to see ifNETA is an effective cytotoxic agent. […] In order to investigate the effect of the chelators on the cellular growth, the Hela cancer cells saturated with Fe(III)-citrate (50 μM) were incubated with each of the chelators (50 μM).
Iron Saturation Experiment Hela Cells were inoculated onto 96-well plates at density of 2,000 per well in 0.1 mL complete medium and incubated for 24 h. […] Control samples containing no ferric citriate were also tested. […] After the incubation, cells proliferation rates were evaluated by MTS assay.

[5] = T1 relaxivity of Gd(III) complexes (Bruker mq60 NMR analyzer); assay type: physicochemical; details: aqueous Gd(III) complexes, ~pH 7, 60 MHz
Description: Gd(NE3TA) and Gd(NE3TA-Bn) were synthesized by reacting GdCl3 with NE3TA and NE3TA-Bn, respectively. NE3TA or NE3TA-Bn were mixed with GdCl3 in a molar ratio of 1 to 0.9, and the resulting mixture at pH 7 was heated to 90° C. and stirred until no free Gd(III) ions were detected using an ArsenazoIII (AAIII) assay. Relaxivity of the aqueous […] complexes (pH 7) was measured on a Bruker MQ60 NMR analyzer, and the concentration of the Gd(III) complexes was measured by ICP-MS. […] NE3TA was successfully conjugated with the most common bile acid, cholic acid (FIG. 41).
(§2) Relaxivity Measurements. Relaxivity measurements were acquired by taking the slope of a plot of 1/T1 (s^−1) versus concentration (mM). The longitudinal water proton relaxation times (T1) were determined using a Bruker mq60 NMR (Bruker Canada, Milton, ON, Canada) analyzer operating at 59.97 MHz and 37° C. The agent was added to Millipore water and serially diluted by 0.5 to give a series of 5 concentrations (500 μL total volume) for each relaxivity trial. The T1 was determined using an inversion recovery pulse sequence with 10 different pulse separations per sample, 4 repetitions per echo time, phase cycling, and a recycle delay that is ≥5 times the T1 of each given sample. All curves were fit using a monoexponential curve fitting formula.
Relaxivity of the aqueous Gd(III) complexes (˜pH 7) were measured on a Bruker MQ60 NMR analyzer, and the concentration of the Gd(III) complexes were measured by ICP-MS. […] As mentioned above, the on and off binding to Gd(III) of one of the pendant coordinates would have resulted enhanced relaxivity of Gd(C-NETA) compared to Gd(C-DOTA). Among the evaluated Gd(III) complexes, Gd(C-NE3TA) gives the highest T1 relaxivity at 60 MHz, probably due to increase in q. The relaxation rates for the Gd(III) chelates are dominated by the inner-sphere dipolar coupling between the coordinated water molecule and the paramagnetic Gd(III). The measured relaxivities arise from the exchange between the coordinated water molecule and the surrounding water molecules in solution. […] No indication of Gd(III) dissociation is evident from the relaxivity data, which is in agreement with the in vitro serum stability and in vivo biodistribution studies.
as §2, with “The T1 relaxivity was determined” for “The T1 was determined”

SMILES	complexation with Bi(III) (absorbance at 652 nm vs time, in words) [1]	complexation with Lu(III) (in words) [2]	IC50 (Hela cells [3]) [µM]	cytotoxicity in HeLa cells over a series of concentrations (in words) (Hela cells [3])	IC50 (HT29 cells) [µM]	viability of normal MRC-5 cells compared to cancer cells (in words) (MRC-5 cells)	effect on Hela cells saturated with Fe(III)-citrate (in words) (Hela cells [4])	T1 relaxivity of Gd(III) complexes of bifunctional ligands [5] [mM⁻¹ s⁻¹]	HeLa cell survival (in words) (Hela cells [4]; free ligand 50 μM, no ferric citrate)
O=C(O)CN1CCN(CCN(CC(=O)O)CC(=O)O)CCN(CC(=O)O)CCN(CC(=O)O)CC1 [DEPA, {7-[2-(Bis-carboxymethyl-amino)-ethyl]-4,10-bis-carboxymethyl-1,4,7,10-tetraazacyclo-dodec-1-yl}-acetic acid]	quite prompt and substantial binding	slow in binding							
CC(=O)N(O)CCCCCNC(=O)CCC(=O)N(O)CCCCCNC(=O)CCC(=O)N(O)CCCCCN [DFO, desferoxamine, reference compound]			> 50	not concentration-dependent	36.1 ± 1.4	little change in cell viability	modest increase in cell viability		
O=C(O)CN1CCN(CC(=O)O)CCN(CC(=O)O)CCN(CC(=O)O)CC1 [DOTA, reference compound]	sluggish complexation							3.96	
O=C(O)CN(CCN(CC(=O)O)CC(=O)O)CCN(CC(=O)O)CC(=O)O [DTPA, diethylenepentaacetic acid, reference compound]			264 ± 36.2	almost no cytotoxicity	39.1 ± 4	much enhanced viability of normal cells	almost no anti-proliferative activity		almost all HeLa cells incubated with DTPA (50 μM) survived
